# System: Patients diagnosed with Alzheimer's Disease
# Assay: Adverse events / safety monitoring in the trial
# Type: in vivo, human
# Description: Subjects in the Placebo group received 21 weeks (5 months) of placebo medication.
# The safety of the drug was also monitored throughout the study. Blood samples for biochemistry and haematology and random urine sample for urinalysis were taken at each visit and at completion for all efficacy testing. Systolic and diastolic blood pressure were measured in the sitting position, pulse and vital signs were recorded at each visit.
compound,measurement,setting,value
"COc1ccc2c3c1O[C@H]1C[C@@H](O)C=C[C@@]31CCN(C)C2 [GAL, galantamine]","Adverse event Agitation, % of patients",8 mg/day,(15.0%)
same,"Adverse event Agitation, number of patients",8 mg/day,21
same,"Adverse event Anorexia, % of patients",8 mg/day,(5.7%)
same,"Adverse event Anorexia, number of patients",8 mg/day,8
same,"Adverse event Depression, % of patients",8 mg/day,(2.9%)
same,"Adverse event Depression, number of patients",8 mg/day,4
same,"Adverse event Diarrhea, % of patients",8 mg/day,(5.0%)
same,"Adverse event Diarrhea, number of patients",8 mg/day,7
same,"Adverse event Dizziness, % of patients",8 mg/day,(5.0%)
same,"Adverse event Dizziness, number of patients",8 mg/day,7
same,"Adverse event Dyspepsia, % of patients",8 mg/day,(2.9%)
same,"Adverse event Dyspepsia, number of patients",8 mg/day,4
same,"Adverse event Edema peripheral, % of patients",8 mg/day,(6.4%)
same,"Adverse event Edema peripheral, number of patients",8 mg/day,9
same,"Adverse event Fall, % of patients",8 mg/day,(7.9%)
same,"Adverse event Fall, number of patients",8 mg/day,11
same,"Adverse event Headache, % of patients",8 mg/day,(3.6%)
same,"Adverse event Headache, number of patients",8 mg/day,5
same,"Adverse event Injury, % of patients",8 mg/day,(3.6%)
same,"Adverse event Injury, number of patients",8 mg/day,5
same,"Adverse event Nausea, % of patients",8 mg/day,(5.7%)
same,"Adverse event Nausea, number of patients",8 mg/day,8
same,"Adverse event Rhinitis, % of patients",8 mg/day,(6.4%)
same,"Adverse event Rhinitis, number of patients",8 mg/day,9
same,"Adverse event Urinary tract infection, % of patients",8 mg/day,(7.9%)
same,"Adverse event Urinary tract infection, number of patients",8 mg/day,11
same,"Adverse event Vomiting, % of patients",8 mg/day,(3.6%)
same,"Adverse event Vomiting, number of patients",8 mg/day,5
same,"Adverse event Weight decrease, % of patients",8 mg/day,(1.4%)
same,"Adverse event Weight decrease, number of patients",8 mg/day,2
same,"Adverse event of clinical interest Bradycardia, % of patients",8 mg/day,(3.6%)
same,"Adverse event of clinical interest Bradycardia, number of patients",8 mg/day,5
same,"Adverse event of clinical interest Convulsions, number of patients",8 mg/day,0
same,"Adverse event of clinical interest Fatigue, % of patients",8 mg/day,(2.1%)
same,"Adverse event of clinical interest Fatigue, number of patients",8 mg/day,3
same,"Adverse event of clinical interest Muscle weakness, % of patients",8 mg/day,(0.7%)
same,"Adverse event of clinical interest Muscle weakness, number of patients",8 mg/day,1
same,"Adverse event of clinical interest Syncope, % of patients",8 mg/day,(1.4%)
same,"Adverse event of clinical interest Syncope, number of patients",8 mg/day,2
same,"Serious adverse event Abdominal pain, % of patients",8 mg/day,(0.0%)
same,"Serious adverse event Abdominal pain, number of patients",8 mg/day,0
same,"Serious adverse event Agitation, % of patients",8 mg/day,(1.4%)
same,"Serious adverse event Agitation, number of patients",8 mg/day,2
same,"Serious adverse event Asthenia, % of patients",8 mg/day,(0.0%)
same,"Serious adverse event Asthenia, number of patients",8 mg/day,0
same,"Serious adverse event Basal cell carcinoma, % of patients",8 mg/day,(0.0%)
same,"Serious adverse event Basal cell carcinoma, number of patients",8 mg/day,0
same,"Serious adverse event Breast neoplasm female, % of patients",8 mg/day,(0.0%)
same,"Serious adverse event Breast neoplasm female, number of patients",8 mg/day,0
same,"Serious adverse event Cardiac failure, % of patients",8 mg/day,(0.0%)
same,"Serious adverse event Cardiac failure, number of patients",8 mg/day,0
same,"Serious adverse event Dehydration, % of patients",8 mg/day,(0.0%)
same,"Serious adverse event Dehydration, number of patients",8 mg/day,0
same,"Serious adverse event Diarrhea, % of patients",8 mg/day,(0.0%)
same,"Serious adverse event Diarrhea, number of patients",8 mg/day,0
same,"Serious adverse event Dyspnea, % of patients",8 mg/day,(0.0%)
same,"Serious adverse event Dyspnea, number of patients",8 mg/day,0
same,"Serious adverse event Fall, % of patients",8 mg/day,(2.9%)
same,"Serious adverse event Fall, number of patients",8 mg/day,4
same,"Serious adverse event Gi haemorrhage, % of patients",8 mg/day,(0.0%)
same,"Serious adverse event Gi haemorrhage, number of patients",8 mg/day,0
same,"Serious adverse event Injury, % of patients",8 mg/day,(0.7%)
same,"Serious adverse event Injury, number of patients",8 mg/day,1
same,"Serious adverse event Myocardial infarction, % of patients",8 mg/day,(2.1%)
same,"Serious adverse event Myocardial infarction, number of patients",8 mg/day,3
same,"Serious adverse event Nausea, % of patients",8 mg/day,(0.0%)
same,"Serious adverse event Nausea, number of patients",8 mg/day,0
same,"Serious adverse event Pneumonia, % of patients",8 mg/day,(0.7%)
same,"Serious adverse event Pneumonia, number of patients",8 mg/day,1
same,"Serious adverse event Sepsis, % of patients",8 mg/day,(0.0%)
same,"Serious adverse event Sepsis, number of patients",8 mg/day,0
same,"Serious adverse event Surgical intervention, % of patients",8 mg/day,(0.0%)
same,"Serious adverse event Surgical intervention, number of patients",8 mg/day,0
same,"Serious adverse event Syncope, % of patients",8 mg/day,(0.7%)
same,"Serious adverse event Syncope, number of patients",8 mg/day,1
same,"Serious adverse event Thrombophlebitis deep, % of patients",8 mg/day,(0.0%)
same,"Serious adverse event Thrombophlebitis deep, number of patients",8 mg/day,0
same,"Serious adverse event Transient ischemic attack, % of patients",8 mg/day,(0.7%)
same,"Serious adverse event Transient ischemic attack, number of patients",8 mg/day,1
same,"Serious adverse event Urinary tract infection, % of patients",8 mg/day,(0.7%)
same,"Serious adverse event Urinary tract infection, number of patients",8 mg/day,1
same,"Serious adverse event Vomiting, % of patients",8 mg/day,(0.0%)
same,"Serious adverse event Vomiting, number of patients",8 mg/day,0
same,"Total patients with any SAE, %",8 mg/day,(10.0%)
same,"Total patients with any SAE, number",8 mg/day,14
same,"Adverse event Agitation, % of patients",16 mg/day,(10.0%)
same,"Adverse event Agitation, number of patients",16 mg/day,28
same,"Adverse event Anorexia, % of patients",16 mg/day,(6.5%)
same,"Adverse event Anorexia, number of patients",16 mg/day,18
same,"Adverse event Depression, % of patients",16 mg/day,(8.6%)
same,"Adverse event Depression, number of patients",16 mg/day,24
same,"Adverse event Diarrhea, % of patients",16 mg/day,(12.2%)
same,"Adverse event Diarrhea, number of patients",16 mg/day,34
same,"Adverse event Dizziness, % of patients",16 mg/day,(5.4%)
same,"Adverse event Dizziness, number of patients",16 mg/day,15
same,"Adverse event Dyspepsia, % of patients",16 mg/day,(4.7%)
same,"Adverse event Dyspepsia, number of patients",16 mg/day,13
same,"Adverse event Edema peripheral, % of patients",16 mg/day,(2.9%)
same,"Adverse event Edema peripheral, number of patients",16 mg/day,8
same,"Adverse event Fall, % of patients",16 mg/day,(5.05%)
same,"Adverse event Fall, number of patients",16 mg/day,14
same,"Adverse event Headache, % of patients",16 mg/day,(6.8%)
same,"Adverse event Headache, number of patients",16 mg/day,19
same,"Adverse event Injury, % of patients",16 mg/day,(4.3%)
same,"Adverse event Injury, number of patients",16 mg/day,12
same,"Adverse event Nausea, % of patients",16 mg/day,(13.3%)
same,"Adverse event Nausea, number of patients",16 mg/day,37
same,"Adverse event Rhinitis, % of patients",16 mg/day,(3.2%)
same,"Adverse event Rhinitis, number of patients",16 mg/day,9
same,"Adverse event Urinary tract infection, % of patients",16 mg/day,(8.2%)
same,"Adverse event Urinary tract infection, number of patients",16 mg/day,23
same,"Adverse event Vomiting, % of patients",16 mg/day,(6.1%)
same,"Adverse event Vomiting, number of patients",16 mg/day,17
same,"Adverse event Weight decrease, % of patients",16 mg/day,(5.4%)
same,"Adverse event Weight decrease, number of patients",16 mg/day,15
same,"Adverse event of clinical interest Bradycardia, % of patients",16 mg/day,(2.5%)
same,"Adverse event of clinical interest Bradycardia, number of patients",16 mg/day,7
same,"Adverse event of clinical interest Convulsions, number of patients",16 mg/day,0
same,"Adverse event of clinical interest Fatigue, % of patients",16 mg/day,(3.6%)
same,"Adverse event of clinical interest Fatigue, number of patients",16 mg/day,10
same,"Adverse event of clinical interest Muscle weakness, % of patients",16 mg/day,(1.1%)
same,"Adverse event of clinical interest Muscle weakness, number of patients",16 mg/day,3
same,"Adverse event of clinical interest Syncope, % of patients",16 mg/day,(1.8%)
same,"Adverse event of clinical interest Syncope, number of patients",16 mg/day,5
same,"Serious adverse event Abdominal pain, % of patients",16 mg/day,(0.7%)
same,"Serious adverse event Abdominal pain, number of patients",16 mg/day,2
same,"Serious adverse event Agitation, % of patients",16 mg/day,(0.4%)
same,"Serious adverse event Agitation, number of patients",16 mg/day,1
same,"Serious adverse event Asthenia, % of patients",16 mg/day,(0.7%)
same,"Serious adverse event Asthenia, number of patients",16 mg/day,2

# — patent publication US20060172993A1 (priority 2002, published 2006)
